Experimental data: patent publication US20180353489A1, “Antibacterial Pharmaceutical Combination and Method for Treating Gram-Negative Bacteria Infections” (TENNOR THERAPEUTICS (SUZHOU) LIMITED, priority 2016, published 2018)
Like-named read-outs stand apart in the source and are kept apart here.

Assays:
[1] = system: Escherichia coli ATCC 25922; assay: Checkerboard broth microdilution MIC test; format: cell-based
From the text: (§1) A standard 96-well plate checkerboard test platform for the determination of Minimum Inhibitory Concentration (MIC) and Minimum Bactericidal Concentration (MBC) as endpoints is used for the test of the antibacterial activity of the pharmaceutical combination in vitro. Escherichia coli ATCC 25922 strain is used as the representative strain of Gram-negative bacteria in initial investigations. The correlation between the observed results and the major Gram-negative bacteria in hospital—Pseudomonas aeruginosa, Klebsiella pneumoniae, Acinetobacter baumannii and Stenotrophomonas maltophilia—is assessed by a similar method.
Escherichia coli ATCC 25922 is a quality control strain for MIC testing as recommended by the Clinical and Laboratory Standards Institute (CLSI), which was obtained originally from the American Type Culture Collection (ATCC) repository and was used as a model of Gram-negative pathogen described herein. Other Gram-negative bacteria strains, including two strains of Pseudomonas aeruginosa, two strains of Klebsiella pneumoniae, Acinetobacter baumannii and Stenotrophomonas maltophilia, were also obtained from ATCC.
Minimum inhibitory concentration (MIC) endpoints of the combination of TNP-2092 and polymyxin B or E were determined by the two-agent checkerboard assay method based on the CLSI broth microdilution susceptibility method. To obtain a 96-well plate for each pharmaceutical combination, two separate intermediate dilution plates were prepared as described. A sufficient volume of a standard cell inoculum of ˜5×10^5 CFU/mL was prepared in cation adjusted Mueller Hinton broth with 0.002% (vol:vol) polysorbate-80 using the direct colony suspension method. […] The “destination MIC test plates” were then incubated statically at 35° C. for 18-24 h and the MIC of each agent alone or in combination was read visually.
(§2) In vitro fractional inhibitory concentration (FIC) was calculated using the following formula: […]

[2] = system: Escherichia coli ATCC 25922; assay: Checkerboard MBC test; format: cell-based; details: for MBC99.9/MIC / MBC99.9: used separately
From the text: as §1
Minimum inhibitory concentration (MIC) endpoints of the combination of TNP-2092 and polymyxin B or E were determined by the two-agent checkerboard assay method based on the CLSI broth microdilution susceptibility method. To obtain a 96-well plate for each pharmaceutical combination, two separate intermediate dilution plates were prepared as described. A sufficient volume of a standard cell inoculum of ˜5×10^5 CFU/mL was prepared in cation adjusted Mueller Hinton broth with 0.002% (vol:vol) polysorbate-80 using the direct colony suspension method. 0.2 mL of the above suspension was added to the wells in the first column of a first 96-well plate (ID-1), and 0.1 mL of the suspension was added to all remaining wells. 0.2 mL of the same cell inoculum suspension was added to the wells in the first row of a second plate (ID-2), and 0.1 mL of suspension was added to all the remaining wells. An appropriately concentrated drug stock “compound-1” (representing one of the two drugs to be tested in the combination) was added to each well in the first column of the plate ID-1. This was then diluted serially two-fold across the plate, changing tips at each transfer, until column 11 was reached. From column 11, 0.1 mL was removed and discarded and column 12 contains only cell inoculum and no drug. Next, an appropriately concentrated drug stock “Compound 2” (representing the second of the two agents to be tested in the combination) was then diluted into each well of row 1 in plate ID2. This was then diluted serially two-fold down the plate, changing tips at each transfer, until row 7 was reached. 0.1 mL was removed from row 7 and discarded and row 8 contains only cell inoculum and no drug. Finally, 0.05 mL was transferred from both ID1 and ID2 into a third 96 well “destination MIC test plate” (see FIG. 1). […] Column 12 is used to call the MIC of compound 2 alone and row 8 is used to call the MIC of compound 1 when tested alone. Note that the intersection of row 8 and column 12 contains no drug and serves as the growth control. The “destination MIC test plates” were then incubated statically at 35° C. for 18-24 h and the MIC of each agent alone or in combination was read visually.
For minimum bactericidal concentration (MBC) endpoints, 0.008 mL portions of each well, after MICs were called, were transferred from the MIC test plates by an automatic sampler to a charcoal agar omni recipient plate. Drops were allowed to air dry in a biological cabinet and the plates incubated inverted for 18-24 h a 35° C. The MBC was scored as the lowest consecutive antimicrobial drug concentration required to kill ≥99.9% of viable input test organisms in 18-24 h, or ≤5 CFU remaining per 0.008 mL drop
as §2
FIC (Fractional inhibitory concentration) or FBC (fractional bactericidal concentration) results were interpreted as synergistic, additive, indifferent, or antagonistic. In cases where no endpoint was observed and the MIC/MBC could not be called, then for the purpose of algebraic calculations, the endpoint was arbitrarily assumed to be one dilution greater than the tested range

Row | Compound | MIC ([1]; ATCC25922, used separately, read-out: MIC) [µg/mL] | MBC ([2]; ATCC25922, used separately, read-out: MBC99.9) [µg/mL] | MBC99.9/MIC [2] | MIC ([1]; used separately) [µg/mL] | MBC99.9 [2] [µg/mL]
1 | CO[C@H]1/C=C/O[C@@]2(C)Oc3c(C)c(O)c4c(O)c(c(/C=N/N5CCC(N(C)C6([C@@H]7CCN(c8c(F)cn9c(=O)c(C(=O)O)cc(C%10CC%10)c9c8C)C7)CC6)CC5)c(O)c4c3C2=O)NC(=O)/C(C)=C\C=C\[C@H](C)[C@H](O)[C@@H](C)[C@@H](O)[C@@H](C)[C@H](OC(C)=O)[C@@H]1C [TNP-2092] | 0.25 | 0.25 | 1 | – | –
2 | polymyxin B | – | – | 4 | 2 | 8
3 | polymyxin E | – | – | 8 | 1 | 8
